Laboratory results from patent US20240407371A1, “METHOD FOR THE KILLING, INACTIVATING, OR INHIBITING OF HARMFUL BLUE-GREEN ALGAE OR ALGAE CAPABLE OF CAUSING HARMFUL ALGAL BLOOM (HAB)” (priority 2021, published 2024).

System: Saprolegnia diclina
Test: Atlantic salmon eggs challenged with Saprolegnia diclina trojan eggs, immersion baths
Format: in vivo, Atlantic salmon (Salmo solar L.) eggs
Settings: 1665 ppm, 15 min bath daily

C=O [Formalin]
signs of saprolegniosis: did not suffer any sign of saprolegniosis | Average Number of Eggs Entangled (Treatment E, 10 days): 0.00 | Average Percent Eggs Entangled (Treatment E, 10 days): 0.00
